Data published in patent US7524852B2, “Bicyclic pyrimidine derivatives” (Kyowa Hakko Kogyo Co., Ltd., priority 2002, dated 2009).

These molecules were tested on Hut78 cells (assay: Inhibitory activity on binding of [125I]-TARC to Hut78 cells). Settings: [125I]-TARC binding to Hut78 cells; test compound at 1 μmol/L.
Description: The RPMI-1640 medium (Sigma-Aldrich Japan) containing 20 mmol/L HEPES [4-(2-hydroxyethyl)-1-piperazinylethanesulfonic acid; HEPES, Nacalai Tesque, Inc.] and 0.1 w/v % bovine serum albumin (SEIKAGAKU CORPORATION) was adjusted to pH 7.0 with sodium hydrogen carbonate (Wako Pure Chemical Industries, Ltd.) to yield a binding/wash buffer. In a 96-well round-bottomed plate (Corning Costar Corporation) were placed 60 μL of a suspension of Hut78 cells (ATCC No. TIB-161) ([…] cells) in the binding/wash buffer, 20 μL of a solution of a test compound and 20 μL of a solution of 810 Bq of [^125I]-TARC (Amersham Biosciences K.K.) diluted with the binding/wash buffer up to the total aliquot of 100 μL, followed by reaction at room temperature for two hours. The solution of the test compound had been prepared by dissolving the test compound in dimethyl sulfoxide (Nacalai Tesque, Inc.) to a concentration of 10 mmol/L, and diluting the solution with the binding/wash buffer to a series of concentrations. The nonspecific binding was determined by a binding assay in the presence of a sufficient amount of unlabeled TARC. The total binding was defined as a binding in the case where dimethyl sulfoxide (Nacalai Tesque, Inc.) was added, instead of the test compound, in the same concentration (0.1 v/v %). […] Microscinti 20 (Packard BioScience Company) was placed in each well at 50 μL/well, and the radioactivity on the glass filter was determined using Topcount NXT™ (Packard BioScience Company). The binding inhibitory rates (%) of the test compounds were determined by calculation according to the following equation:
[formula] Total binding: [^125I]-TARC binding radioactivity without addition of the test compound Binding upon addition of test compound: [^125I]-TARC binding radioactivity at respective concentration upon addition of test compound Nonspecific binding: [^125I]-TARC binding radioactivity upon addition of unlabeled TARC

Row | SMILES | The Binding Inhibitory Rates at 1 μmol/L
1 | CCCNC(=O)N1CCc2nc(N3CCN(CC4CN(C)CCO4)CC3)nc(NCc3ccc(Cl)cc3Cl)c2C1 (stereo not drawn) [Compound 15-59] | 90
2 | CCCNC(=O)N1CCc2nc(N3CCN(CC4CN(C)CCO4)CC3)nc(NCc3ccc(Cl)cc3Cl)c2C1 (stereo not drawn) [Compound 15-54] | 97
3 | CCNC(=O)N1CCc2nc(N3CCN(C[C@@H]4CN(C)CCO4)CC3)nc(NCc3ccc(Cl)cc3Cl)c2C1 [Compound 15-47] | 96
